How the values were obtained:
[1] = target: T1, CCK-Receptor (Rattus norvegicus, UniProt P30551); experiment: CCK-Receptor Binding Assay in Pancreas; design: species or system Male Wistar rats; conditions: inhibition of specific 125I-CCK-8 (30 pM) binding, rat pancreatic plasma membranes, 37° C., 30 minutes, pH 7.4
T1 construct: Pancreatic plasma membranes were prepared by the method of Chang et al; from tissue; host or cells: pancreatic plasma membranes of male Wistar rats
T1 sequence (P30551 1-444): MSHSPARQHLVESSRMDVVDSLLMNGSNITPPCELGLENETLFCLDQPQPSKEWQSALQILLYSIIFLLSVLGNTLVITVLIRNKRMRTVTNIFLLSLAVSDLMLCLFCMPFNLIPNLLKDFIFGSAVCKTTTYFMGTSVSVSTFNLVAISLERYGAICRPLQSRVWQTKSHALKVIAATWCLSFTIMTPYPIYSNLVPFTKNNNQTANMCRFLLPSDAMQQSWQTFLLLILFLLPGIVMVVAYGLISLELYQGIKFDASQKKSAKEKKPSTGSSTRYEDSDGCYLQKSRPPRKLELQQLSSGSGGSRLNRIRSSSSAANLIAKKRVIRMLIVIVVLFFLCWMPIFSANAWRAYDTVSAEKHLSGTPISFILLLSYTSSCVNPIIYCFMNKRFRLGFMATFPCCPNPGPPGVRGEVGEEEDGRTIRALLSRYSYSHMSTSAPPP
Description: CCK-Receptor Binding Assay in Pancreas
Pancreatic plasma membranes were prepared by the method of Chang et al. (Molecular Pharmacology, Vol. 30, p. 212-, 1986). Male Wistar rats were sacrificed by decapitation and the pancreas was removed. The pancreas was dissected free from adipose tissue and minced in 50 volumes ice-cold Tris-HCl buffer (50 mM, pH 7.4 at 37° C.). Homogenization was performed using ultra disperser and the homogenate was centrifuged at 50,000×g for 10 minutes. The pellet was washed by resuspension in the same volume of fresh Tris-HCl buffer and again centrifuged as above. The final pellet was suspended in assay buffer (50 mM Tris-HCl, 5 mM MgCl2, 5 mM dithiothreitol, 2 mg/ml of bovine serum albumin, and 0.14 mg/ml of bacitracin), and used as receptor sources for binding assay.
Thirty pM ^125 I-CCK-8 (final concentration), test drug or vehicle (for total binding) or 10^-6 M CCK-8 (for nonspecific binding) were added to the assay medium containing pancreatic plasma membranes (0.5 mg of original wet weight/ml). After incubation at 37° C. for 30 minutes, the assay medium was filtrated under reduced pressure through glass fiber filter and washed four times with 4 ml of ice-cold Tris-HCl buffer. The radioactivity trapped on the filter was counted by γ-counter (Packard 5650).
Specific binding was defined as the radioactivity bound after subtracting nonspecific binding determined in the presence of 10^-6 M unlabeled CCK-8. IC50 value was calculated from inhibition percentage of specific binding by each test drug.

[2] = test system: amylase secretion stimulated by CCK-8; experiment: Effect on Amylase Secretion in Rats; assay type: in vivo, Male Wistar rats; conditions: Rattus norvegicus, intraduodenal administration 30 minutes before CCK-8 (10 μg/kg, subcutaneous), anesthetized rats
Description: Effect on Amylase Secretion in Rats
Male Wistar rats were anesthetized with urethane (1.5 g/kg, S.C.), and tracheal cannula was inserted. Biliopancreatic juice was collected from the cannula which had been inserted into the common bile duct. Thirty minutes after intraduodenal administration of test drug, amylase secretion was stimulated by subcutaneous injection of CCK-8 (10 μg/kg). Amylase concentration in the sample collected every 30 minutes during experiment was assayed using Amylase B Test (Wako), and ED50 value was calculated.

[3] = test system: gallbladder contraction induced by CCK-8; experiment: CCK-Antagonism in Isolated Gallbladder; assay type: cell-based, male Hartley guinea-pig; conditions: Cavia porcellus; antagonism of gallbladder strip contraction induced by 10^-8 M CCK-8, 37° C.
Description: CCK-Antagonism in Isolated Gallbladder
Gallbladder strips isolated from male Hartley guinea-pig were prepared and suspended in Magnus bath filled with Krebs solution (1 g of initial tension). The solution kept at 37° C. was aerated with a mixture of 95% O2 and 5% CO2. The isometric contraction of strips was recorded through a force-displacement transducer. Antagonism by test drugs against gallbladder contraction induced by 10^-8 M CCK-8 was examined and IC50 value was calculated.

Row | SMILES | IC50 [1] | ED50 [2] | IC50 [3]
1 | CCCCCN(CCCCC)C(=O)C(CCC(=O)OC)CS(=O)(=O)c1ccc(Cl)c(Cl)c1 (racemic) [Compound 1, Methyl 5-(3,4-dichlorophenylsulfonyl)-4-(N,N-dipentylcarbamoyl)pentanoate] | 880 nM |  | 
2 | CCCCCN(CCCCC)C(=O)C(CCC(=O)O)CS(=O)(=O)c1cccc(Cl)c1 (racemic) [Compound 27] | 4700 nM |  | 
3 | CCCCCN(CCCCC)C(=O)C(CCC(=O)O)CS(=O)(=O)c1cccc(Br)c1 (racemic) [Compound 28] | 3000 nM |  | 
4 | CCCCN(C)C(=O)C(CCC(=O)O)CS(=O)(=O)c1ccc(Cl)c(Cl)c1 (racemic) [Compound 31] | 8800 nM |  | 
5 | CCCCCCCN(CCCCCCC)C(=O)C(CCC(=O)O)CS(=O)(=O)c1ccc(Cl)c(Cl)c1 (racemic) [Compound 34] | 430 nM |  | 
6 | CCCCCN(CCCCC)C(=O)C(CCC(=O)O)CS(=O)(=O)c1ccc(Cl)c(Cl)c1 (single isomer, unassigned) [Compound 21] | 1100 nM |  | 
7 | CCCCCN(CCCOC)C(=O)C(CCC(=O)O)CS(=O)(=O)c1ccc(Cl)c(Cl)c1 (single isomer, unassigned) [Compound 24] | 4000 nM |  | 
8 | CCCCCN(CCCCC)C(=O)C(CC(=O)OC)CS(=O)(=O)c1ccc(Cl)c(Cl)c1 (stereo not drawn) [Compound 11] | 980 nM |  | 
9 | CCCCCN(CCCCC)C(=O)C(CCCC(=O)OC)CS(=O)(=O)c1ccc(Cl)c(Cl)c1 (stereo not drawn) [Compound 12] | 4800 nM |  | 
10 | CCCCCN(CCCCC)C(=O)C(CCC(=O)OCC)CS(=O)(=O)c1ccc(Cl)c(Cl)c1 (stereo not drawn) [Compound 18] | 1100 nM |  | 
11 | CCCCCN(CCCCC)C(=O)C(CCC(=O)O)CS(=O)(=O)c1cc(Cl)cc(Cl)c1 (stereo not drawn) [Compound 25] | 1500 nM |  | 
12 | CCCCCN(CCCCC)C(=O)C(CCC(=O)O)CS(=O)(=O)c1ccc(Cl)cc1 (stereo not drawn) [Compound 26] | 1000 nM |  | 
13 | CCCCCCN(CCCCc1ccccc1)C(=O)C(CCC(=O)OC)CS(=O)(=O)c1ccc(Cl)c(Cl)c1 (stereo not drawn) [Compound 40] | 5800 nM |  | 
14 | COC(=O)CCC(CS(=O)(=O)c1ccc(Cl)c(Cl)c1)C(=O)N(C)Cc1ccccc1 (stereo not drawn) [Compound 41, methyl 4-(N-benzyl-N-methylcarbamoyl)-5-(3,4-dichlorophenylsulfonyl)pentanoate] | 3500 nM |  | 
15 | O=C(O)CCC(CS(=O)(=O)c1ccc(Cl)c(Cl)c1)C(=O)N(CCCc1ccccc1)CCCc1ccccc1 (stereo not drawn) [Compound 45] | 1000 nM |  | 
16 | CCCCCCN(CCCCc1ccccc1)C(=O)C(CCC(=O)O)CS(=O)(=O)c1ccc(Cl)c(Cl)c1 (stereo not drawn) [Compound 46] | 570 nM |  | 
17 | CN(Cc1ccccc1)C(=O)C(CCC(=O)O)CS(=O)(=O)c1ccc(Cl)c(Cl)c1 (stereo not drawn) [Compound 47] | 1800 nM |  | 
18 | CCCCCN(CCCCC)C(=O)C(CCC(=O)O)CS(=O)(=O)c1ccc(C)c(C)c1 (stereo not drawn) [Compound 48] | 290 nM |  | 
19 | CCCCCN(CCCCC)C(=O)C(CCC(=O)O)CS(=O)(=O)c1ccc(C)cc1 (stereo not drawn) [Compound 49] | 3400 nM |  | 
20 | CCCCCN(CCCCC)C(=O)C(CCC(=O)O)CS(=O)(=O)c1ccc([N+](=O)[O-])cc1 (stereo not drawn) [Compound 50] | 730 nM |  | 
21 | CCCCCN(CCCCC)C(=O)C(CCC(=O)O)CS(=O)(=O)c1ccc(C(C)=O)cc1 (stereo not drawn) [Compound 51, 5-(4-Acetylphenylsulfonyl)-4-(N,N-dipentylcarbamoyl)pentanoic acid] | 2000 nM |  | 

Second part, led by results:

Row | IC50 [1] | SMILES | ED50 [2] | IC50 [3]
22 | 200 nM | CCCCCN(CCCCC)C(=O)C(CCC(=O)O)CS(=O)(=O)c1ccc(Cl)c(Cl)c1 (racemic) [Compound 19, 5-(3,4-Dichlorophenylsulfonyl)-4-(N,N-dipentylcarbamoyl)pentanoic acid] | 2.2 mg/kg | 11000 nM
23 | 230 nM | CCCCCN(CCCOC)C(=O)C(CCC(=O)O)CS(=O)(=O)c1ccc(Cl)c(Cl)c1 (racemic) [Compound 22, 5-(3,4-dichlorophenylsulfonyl)-4-[N-(3-methoxypropyl)-N-pentylcarbamoyl]pentanoic acid] | 9.5 mg/kg | 3400 nM
24 | 95 nM | CCCCCN(CCCCC)C(=O)C(CC(=O)O)CS(=O)(=O)c1ccc(Cl)c(Cl)c1 (racemic) [Compound 29] |  | 
25 | 230 nM | CCCCCN(CCCCC)C(=O)C(CCCC(=O)O)CS(=O)(=O)c1ccc(Cl)c(Cl)c1 (racemic) [Compound 30] |  | 
26 | 280 nM | CCCCN(CCCC)C(=O)C(CCC(=O)O)CS(=O)(=O)c1ccc(Cl)c(Cl)c1 (racemic) [Compound 32] |  | 
27 | 59 nM | CCCCCCN(CCCCCC)C(=O)C(CCC(=O)O)CS(=O)(=O)c1ccc(Cl)c(Cl)c1 (racemic) [Compound 33] |  | 
28 | 130 nM | CC(C)CCN(CCC(C)C)C(=O)C(CCC(=O)O)CS(=O)(=O)c1ccc(Cl)c(Cl)c1 (racemic) [Compound 35] |  | 
29 | 110 nM | CCCCCN(CCCCC)C(=O)C(CCC(=O)O)CS(=O)(=O)c1ccc(Cl)c(Cl)c1 (single isomer, unassigned) [Compound 20] | 4.7 mg/kg | 5100 nM
30 | 290 nM | CCCCCN(CCCOC)C(=O)C(CCC(=O)O)CS(=O)(=O)c1ccc(Cl)c(Cl)c1 (single isomer, unassigned) [Compound 23] |  | 
31 | 210 nM | CCCCCN(CCc1ccccc1)C(=O)C(CCC(=O)O)CS(=O)(=O)c1ccc(Cl)c(Cl)c1 (stereo not drawn) [Compound 42, 5-(3,4-dichlorophenylsulfonyl)-4-(N-pentyl-N-phenethylcarbamoyl)pentanoic acid] |  | 
32 | 110 nM | CCCCCN(CCCc1ccccc1)C(=O)C(CCC(=O)O)CS(=O)(=O)c1ccc(Cl)c(Cl)c1 (stereo not drawn) [Compound 43] |  | 
33 | 230 nM | O=C(O)CCC(CS(=O)(=O)c1ccc(Cl)c(Cl)c1)C(=O)N(CCc1ccccc1)CCc1ccccc1 (stereo not drawn) [Compound 44] |  | 
